Laboratory results reported in patent EP0429372A1, “2-Azolyl nicotinate derivatives as herbicides” (RHONE-POULENC AGROCHIMIE, priority 1989, dated 1991).
Read-outs that look alike come from different tables or passages of the source.

Tests used:
Format in all cases: in vivo
mauvaises herbes [1] = settings: post-emergence
Source text: (§1) Des quantités appropriées des composés d'essai ont été dissoutes dans de l'acétone pour obtenir des solutions équivalant à des taux d'application de 250, 1000 ou 4000 g de composé d'essai par hectare (g/ha).
Des espèces de mauvaises herbes ont été cultivées, puis transplantées au stade de jeunes plants de semis dans du compost de mise en pot John Innes N°1 dans des pots en matière plastique de 70 mm de côté et 75 mm de profondeur, sauf en ce qui concerne Avena fatua, qui a été semée directement dans le pot d'essai et n' a pas été transplantée. Puis les plantes ont été cultivées dans la serre jusqu'à ce qu'elles soient prêtes à subir une pulvérisation avec les composés d'essai. Le nombre de plantes par pot et la croissance de la plante au moment de la pulvérisation étaient les suivantes :
Les composés d'essai ont été appliquées aux plantes de la manière décrite dans le paragraphe (a) ci-dessus. Un seul pot de chaque espèce de mauvaises a été attribué à chaque traitement, en association avec des témoins n'ayant pas subi de pulvérisation et des témoins ayant subi une pulvérisation avec de l'acétone seule. Après pulvérisation, les pots ont été arrossés par aspersion, en commençant 24 heures après pulvérisation. L'évalutation visuelle de la lutte contre la croissance des mauvaises herbes a été effectuée 17 à 20 jours après pulvérisation. Les résultats ont été exprimés en pourcentage de réduction de croissance ou de mortalité des mauvaises herbes, comparativement aux plantes présentes dans les pots témoins.

mauvaises herbes [2] = assay: Procedure 1 b): weed control, pre-emergence application; settings: 4000 g/ha (procédé 1B), visual rating 17 to 20 days after spraying, vs control pots
Source text: as §1
Des graines de mauvaises herbes ont été semées à la surface de compost de mise en pot John Innes N°1 (7 parties par volume de terre végétale stérilisée, 3 parties en volume de gravier fin) dans des pots en matière plastique de 70 mm de côté et 75 mm de profondeur. Les quantités de graines par pot étaient les suivantes :
Les composés de la présente invention ont été appliqués aux graines non recouvertes de la manière décrite dans le paragraphe (a) ci-dessus et ces graines ont été recouvertes avec 25ml de sable liant après pulvérisation. Un seul pot de chaque espèce de mauvaise herbe a été attribué à chaque traitement, en association avec des témoins n'ayant pas subi de pulvérisation et des témoins ayant subi une pulvérisation avec de l'acétone seule. Après traitement, les pots ont été maintenus dans une serre et ont été arrosés par aspersion. L'évaluation visuelle de l'activité de destruction des mauvaises herbes a été effectuée 17 à 20 jours après pulvérisation. Les résultats ont été exprimés par le pourcentage de réduction de croissance ou de mortalité des mauvaises herbes, comparativement aux plantes présentes dans les pots témoins.

Polygonum convolvulus = settings: 500 g/ha, 576 h
Source text: (§2) Dans des pots de 7 x 7 x 8 cm remplis de terre agricole légère, on sème un nombre de graines déterminé en fonction de l'espèce végétale et de la grosseur de la graine.
(§3) On recouvre ensuite les graines d'une couche de terre d'environ 3 mm d'épaisseur et on laisse germer la graine jusqu'à ce qu'elle donne naissance à une plantule au stade convenable. Le stade de traitement pour les graminées est le stade "deuxième feuille en formation". Le stade de traitement pour les dicotylédones, est le stade "cotylédons étalés, première feuille vraie en développement".
(§4) Les pots sont alors traités par pulvérisation de bouillie en quantité correspondant à une dose volumique d'application de 500 l/ha et contenant la matière active à la concentration désirée.
(§5) La bouillie a été préparée de la même manière qu'à l'exemple A.
(§6) Les pots traités sont ensuite placés dans des bacs destinés à recevoir l'eau d'arrosage, en subirrigation, et maintenus pendant 24 jours à température ambiante sous 70 % d'humidité relative.
(§7) Au bout de 24 jours, on mesure un pourcentage (D) de destruction du nombre de pieds dans le pot traité par rapport au nombre de plantes dans les pots non traités (témoin). On mesure, sur les plantes traitées restantes, le pourcentage de réduction de taille (RT) par rapport aux plantes témoin.
(§8) Le pourcentage de volume foliaire non détruit par le produit est donc donné par la formule : [formula]
(§9) Cette valeur A est transformée en notation de 0 à 5 selon l'échelle suivante :
(§10) Ainsi, un produit est jugé comme sélectif vis à vis de la culture lorsque la valeur A notée est de 0 ou 1.
(§11) Les résultats obtenus sont présentés dans l'exemple C pour des doses d'application comprises entre 0,5 et 4 kg de matière active par hectare selon les produits.

Chrysanthemum segetum = settings: post-emergence, 500 g/ha, 576 h
Source text: as §2, §3, §4, §5, §6, §7, §8, §9, §10, §11

Convolvulus arvensis = settings: post-emergence, 500 g/ha, 576 h
Source text: as §2, §3, §4, §5, §6, §7, §8, §9, §10, §11

Ipomea purpurea = assay: Example B: post-emergence herbicidal application, pot test; settings: 576 h
Source text: as §2
as §3, with “formation ".” for “formation".”
as §4
(§12) La bouille a été préparée de la même manière qu'à l'exemple A.
as §6, §7
(§13) Le pourcentage du volume foliaire non détruit par le produit est donc donné par la formule : [formula]
as §9
(§14) Les résultats obtenus sont présentés après le tableau A pour des doses d'application de 4000 g/ha.

Solanum nigrum [3] = assay: as above; settings: 576 h
Source text: as §2
as §3, with “formation ".” for “formation".”
as §4, §12, §6, §7, §13, §9, §14

Digitaria sanguinalis = assay: as above; settings: 576 h
Source text: as §2
as §3, with “formation ".” for “formation".”
as §4, §12, §6, §7, §13, §9, §14

Echinochloa crusgalli = assay: as above; settings: 576 h
Source text: as §2
as §3, with “formation ".” for “formation".”
as §4, §12, §6, §7, §13, §9, §14

Sinapis alba [4] = assay: as above; settings: 1000 g/ha, 576 h
Oryza sativa = assay: Example C: selectivity test in major crops, post-emergence application; settings: crop (Riz), 24 days, score 0-5, 0 or 1 = selective; note: ranges in brackets are in %
Source text: as §2, §3, §4, §5, §6, §7, §8, §9, §10, §11

Solanum nigrum [5] = assay: as above; settings: 576 h
Source text: as §2, §3, §4, §5, §6, §7, §8, §9, §10, §11

Sesbania exaltata = assay: as above; settings: 576 h
Source text: as §2, §3, §4, §5, §6, §7, §8, §9, §10, §11

Ipomea pupurea = assay: as above; settings: 576 h
Source text: as §2, §3, §4, §5, §6, §7, §8, §9, §10, §11

Xanthium pennsylvanicum = assay: as above; settings: 576 h
Source text: as §2, §3, §4, §5, §6, §7, §8, §9, §10, §11

Zea mays = assay: as above; settings: crop (Maïs), 24 days, score 0-5, 0 or 1 = selective; note: ranges in brackets are in %
Source text: as §2, §3, §4, §5, §6, §7, §8, §9, §10, §11

Triticum aestivum = assay: as above; settings: crop (Blé), 24 days, score 0-5, 0 or 1 = selective; note: ranges in brackets are in %
Source text: as §2, §3, §4, §5, §6, §7, §8, §9, §10, §11

Viola tricolor = assay: as above; settings: 500 g/ha, 576 h
Source text: as §2, §3, §4, §5, §6, §7, §8, §9, §10, §11

Sinapis alba [6] = assay: Example B: post-emergence herbicidal application, pot test; settings: 4000 g/ha, 576 h
Source text: as §2
as §3, with “formation ".” for “formation".”
as §4, §12, §6, §7, §13, §9, §14

Lolium multiflorum = assay: as above; settings: 4000 g/ha, 576 h
Source text: as §2
as §3, with “formation ".” for “formation".”
as §4, §12, §6, §7, §13, §9, §14

Sinapis alba [7] = assay: Example C: selectivity test in major crops, post-emergence application; settings: 1000 g/ha, 576 h
Source text: as §2, §3, §4, §5, §6, §7, §8, §9, §10, §11

CN(C)S(=O)(=O)n1c(-c2ncccc2C(=O)O)nc2cc(OC(F)(F)F)ccc21 [compound 92]
réduction de la croissance d'une ou plusieurs des espèces de mauvaises herbes (mauvaises herbes [1]): ≥ 90%
réduction de la croissance d'une ou plusieurs des espèces de mauvaises herbes (mauvaises herbes [2]): ≥ 90%

CN(C)S(=O)(=O)n1c(-c2ncccc2C(=O)O)nc2ccccc21 [compound 119]
ACTIVITE HERBICIDE DE POST LEVEE P O L (Polygonum convolvulus): 5 (O à 10)
ACTIVITE HERBICIDE DE POST LEVEE C H Y (Chrysanthemum segetum): 5 (O à 10)
ACTIVITE HERBICIDE DE POST LEVEE C O N (Convolvulus arvensis): 2 (50 à 70)
ACTIVITE DE POST-LEVEE IPO (Ipomea purpurea; 1000 g/ha): 3 (30 à 50)
ACTIVITE DE POST-LEVEE SOL (Solanum nigrum [3]; 1000 g/ha): 5 (O à 10)
ACTIVITE DE POST-LEVEE DIG (Digitaria sanguinalis; 1000 g/ha): 0 (90 à 100)
ACTIVITE DE POST-LEVEE ECH (Echinochloa crusgalli; 1000 g/ha): 0 (90 à 100)
ACTIVITE DE POST-LEVEE SIN (Sinapis alba [4]): 4 (10 à 30)
ACTIVITE HERBICIDE DE POST LEVEE O R Y (Oryza sativa; dose 0,5 kg/ha): 0 (90 à 100)
ACTIVITE HERBICIDE DE POST LEVEE S O L (Solanum nigrum [5]; 500 g/ha): 4 (10 à 30)
ACTIVITE HERBICIDE DE POST LEVEE S E S (Sesbania exaltata; 500 g/ha): 5 (O à 10)
ACTIVITE HERBICIDE DE POST LEVEE I P O (Ipomea pupurea; 500 g/ha): 3 (30 à 50)
ACTIVITE HERBICIDE DE POST LEVEE X A N (Xanthium pennsylvanicum; 500 g/ha): 3 (30 à 50)
ACTIVITE HERBICIDE DE POST LEVEE Z E A (Zea mays; dose 0,5 kg/ha): 0 (90 à 100)
ACTIVITE HERBICIDE DE POST LEVEE T R Z (Triticum aestivum; dose 0,5 kg/ha): 0 (90 à 100)
ACTIVITE HERBICIDE DE POST LEVEE V I O (Viola tricolor): 3 (30 à 50)

CN(C)S(=O)(=O)n1nc(-c2ccccc2)nc1-c1ncccc1C(=O)O [compound 1, Sel d'isopropylamine de 3 -(3 - carboxy 2 - pyridyl) 2 - N,N dimethyl sulfamoyl 5 - phényl 1,2,4 - triazole]
ACTIVITE DE POST-LEVEE SIN (Sinapis alba [6]): 5 (O à 10)
ACTIVITE DE POST-LEVEE IPO (Ipomea purpurea; 4000 g/ha): 3 (30 à 50)
ACTIVITE DE POST-LEVEE SOL (Solanum nigrum [3]; 4000 g/ha): 5 (O à 10)
ACTIVITE DE POST-LEVEE LOL (Lolium multiflorum): 0 (90 à 100)
ACTIVITE DE POST-LEVEE DIG (Digitaria sanguinalis; 4000 g/ha): 0 (90 à 100)
ACTIVITE DE POST-LEVEE ECH (Echinochloa crusgalli; 4000 g/ha): 0 (90 à 100)
ACTIVITE HERBICIDE DE POST LEVEE O R Y (Oryza sativa; dose 1 kg/ha): 0 (90 à 100)
ACTIVITE HERBICIDE DE POST LEVEE S I N (Sinapis alba [7]): 5 (O à 10)
ACTIVITE HERBICIDE DE POST LEVEE S O L (Solanum nigrum [5]; 1000 g/ha): 5 (O à 10)
ACTIVITE HERBICIDE DE POST LEVEE S E S (Sesbania exaltata; 1000 g/ha): 5 (O à 10)
ACTIVITE HERBICIDE DE POST LEVEE I P O (Ipomea pupurea; 1000 g/ha): 4 (10 à 30)
ACTIVITE HERBICIDE DE POST LEVEE X A N (Xanthium pennsylvanicum; 1000 g/ha): 4 (10 à 30)
ACTIVITE HERBICIDE DE POST LEVEE Z E A (Zea mays; dose 1 kg/ha): 0 (90 à 100)
ACTIVITE HERBICIDE DE POST LEVEE T R Z (Triticum aestivum; dose 1 kg/ha): 0 (90 à 100)
